Experiment [1] concerns the target T1, human CB2Rs (Homo sapiens, UniProt P34972). The experiment can be described thus: [35S]GTPγS binding. It is filed as biochemical. As to conditions: CHO-hCB2 membranes; for Intrinsic activity at CB2Rs, G-protein activation: agonists at 10 µM compared to CP-55,940; for CB2R Efficacy (EMAX) G-protein Activation: 10 µM, [35S]GTPγS binding, mean ± SEM. On the technique in general: GTPγS is a poorly hydrolysed GTP analogue; its binding reports G protein activation.

Experiment [2] addresses T1, human CB2Rs. The experiment can be described thus: [3H]CP-55,940 competition receptor binding in CHO-hCB2 membranes.
In experiment [3] the target is T1, human CB2Rs. Description: Inhibition of forskolin-stimulated adenylyl cyclase. In kind it is cell-based. As to conditions: for CB2R Efficacy (EMAX) AC-Inhibition: 10 µM; for Potency to regulate AC-activity relative to the parent compound: IC50 metabolite versus parent; for Intrinsic activity at CB2Rs, AC-inhibition: 10 µM compared to CP-55,940; for FRO for 50% AC-Inhibition: fractional CB2R occupancy at AC-IC50, FRO = [DRUG] / (Ki + [DRUG]).

Experiment [4] concerns the target human mu-opioid receptors (Homo sapiens, UniProt P35372). The experiment can be described thus: [35S]GTPγS binding. It is filed as biochemical. The note with it: 10 µM, membranes not expressing hCB2Rs.
[5] abbreviates: intact CHO-hCB2 cells, mean ± SEM.
The mark [6] stands for this setting: read-out: CB2R Affinity (Ki), [3H]CP-55,940 0.2 nM, CHO-hCB2 membranes, mean ± SEM.
Setting [7] is: read-out: Potency for AC-Inhibition (IC50), intact CHO-hCB2 cells, 30 µM forskolin, mean ± SEM.

Values joined by “and” are separate entries in the source; they are usually repeats but may differ in a detail not shown here. Identical values can stand only once. Like-named read-outs stand apart in the source and are kept apart here.

T1 sequence (P34972 whole entry): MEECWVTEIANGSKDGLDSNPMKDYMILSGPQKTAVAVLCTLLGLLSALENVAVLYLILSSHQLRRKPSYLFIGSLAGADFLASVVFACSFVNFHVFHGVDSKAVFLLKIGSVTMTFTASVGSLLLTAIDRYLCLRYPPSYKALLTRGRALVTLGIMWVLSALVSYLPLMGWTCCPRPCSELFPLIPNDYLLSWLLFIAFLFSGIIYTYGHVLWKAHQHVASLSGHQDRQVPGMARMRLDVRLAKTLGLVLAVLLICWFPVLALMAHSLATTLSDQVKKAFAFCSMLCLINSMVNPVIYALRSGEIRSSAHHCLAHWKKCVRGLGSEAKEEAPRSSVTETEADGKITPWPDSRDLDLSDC
human mu-opioid receptors, sequence (P35372 whole entry): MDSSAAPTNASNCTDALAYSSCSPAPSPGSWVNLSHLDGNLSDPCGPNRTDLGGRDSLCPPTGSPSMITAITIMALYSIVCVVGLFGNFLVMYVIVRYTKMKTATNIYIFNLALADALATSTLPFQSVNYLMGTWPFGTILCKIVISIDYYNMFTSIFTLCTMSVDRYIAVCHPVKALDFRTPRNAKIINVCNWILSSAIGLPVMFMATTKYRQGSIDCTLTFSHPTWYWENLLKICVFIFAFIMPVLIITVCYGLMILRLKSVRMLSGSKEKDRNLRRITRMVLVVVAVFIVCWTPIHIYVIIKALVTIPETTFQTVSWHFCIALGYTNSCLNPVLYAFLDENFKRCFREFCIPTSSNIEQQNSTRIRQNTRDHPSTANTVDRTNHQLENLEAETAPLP

In the case of `COc1ccc(C(=O)c2c(C)n(CCN3CCOCC3)c3cc(I)ccc23)cc1` [AM-630, reference compound], at human CB2Rs [1], the “Intrinsic activity at CB2Rs, G-protein activation” value was “acted as inverse agonists”.
Same read-out and setting: next, `CCCCCOc1c(OC)ccc2cc(C(=O)NCc3ccc4c(c3)OCO4)c(=O)[nH]c12` [JTE-907, reference compound]: “acted as inverse agonists”.
Consider `CCCCCn1cc(C(=O)c2cccc3ccccc23)c2ccccc21` [JWH-018, 1-pentyl-3-(1-naphthoyl)indole], for which the Ki on human CB2Rs [2] was 5.6 ± 2.4 nM. Besides, the “CB2R Efficacy (EMAX) G-protein Activation” value on human CB2Rs [1] is given as 60.3 ± 11.4 (7) fmole/mg. At human CB2Rs [3], the IC50 was 3.6 ± 2.2 nM. The “CB2R Efficacy (EMAX) AC-Inhibition” value on human CB2Rs [3] (setting [5]) is on record as 59.3 ± 4.0 (4) % Inhibition. The “Effect on G-protein activity in CHO-hMOR membranes” value in experiment [4] is given as “failed to significantly alter G-protein activity”.
In the case of `O=C(c1cccc2ccccc12)c1cn(CCCCCO)c2ccccc12` [JWH-018-M5], at human CB2Rs [2] (setting [6]), the Ki came out at 47.4 ± 10.1 nM. Also, the “CB2R Efficacy (EMAX) G-protein Activation” value on human CB2Rs [1] is recorded as 38.4 ± 8.5 (5) fmole/mg. Besides, the “CB2R Efficacy (EMAX) AC-Inhibition” value at human CB2Rs [3] (setting [5]) was 53.5 ± 4.6 (4) % Inhibition. Besides, at human CB2Rs [3], the “Potency to regulate AC-activity relative to the parent compound” value is listed as around 5 fold. Besides, the “Intrinsic activity at CB2Rs, AC-inhibition” value at human CB2Rs [3] (intact CHO-hCB2 cells) is recorded as “partial CB2R agonists”. Moreover, the IC50 on human CB2Rs [3] (setting [7]) is 17.7 ± 5.5 nM.
Regarding `O=C(O)CCCCn1cc(C(=O)c2cccc3ccccc23)c2ccccc21` [JWH-018-M6], at human CB2Rs [2] (CHO-hCB2 membranes), the “CB2R affinity” value is reported as “lack affinity for CB2Rs”. In addition, the Ki on human CB2Rs [2] (setting [6]) was above 10000 nM.
Turning to `CCCCn1cc(C(=O)c2cccc3ccccc23)c2ccccc21` [JWH-073, 1-butyl-3-(1-naphthoyl)indole], the “CB2R Efficacy (EMAX) G-protein Activation” value at human CB2Rs [1] is 40.1 ± 4.2 (3) fmole/mg. Also, at human CB2Rs [3], it took 16.9 ± 1.9 nM to reach half-maximal inhibition (IC50); the “FRO for 50% AC-Inhibition” value is 62.5% and 62.5 ± 3.0 (5) %. In addition, the “CB2R Efficacy (EMAX) AC-Inhibition” value at human CB2Rs [3] (setting [5]) is on record as 62.6 ± 2.7 (3) % Inhibition. At human CB2Rs [3] (intact CHO-hCB2 cells), the “Intrinsic activity at CB2Rs, AC-inhibition” value is “full agonists”. In experiment [4], the “Effect on G-protein activity in CHO-hMOR membranes” value is reported as “failed to significantly alter G-protein activity”.
With `O=C(c1cccc2ccccc12)c1cn(CCCCO)c2ccccc12` [JWH-073-M5], the Ki at human CB2Rs [2] (setting [6]) amounted to 96 ± 7.1 nM. At human CB2Rs [1], the “CB2R Efficacy (EMAX) G-protein Activation” value was 31.0 ± 1.0 (3) fmole/mg. On human CB2Rs [3] (setting [5]), the “CB2R Efficacy (EMAX) AC-Inhibition” value is given as 54.2 ± 5.9 (4) % Inhibition. At human CB2Rs [3], the “Potency to regulate AC-activity relative to the parent compound” value is listed as “equipotent”; the “FRO for 50% AC-Inhibition” value is 12.1% and 12.1 ± 1.6 (3) %. The IC50 at human CB2Rs [3] (setting [7]) came to 13.3 ± 2 nM.
`O=C(O)CCCn1cc(C(=O)c2cccc3ccccc23)c2ccccc21` [JWH-073-M6]: at human CB2Rs [2] (CHO-hCB2 membranes), the “CB2R affinity” value was “lack affinity for CB2Rs”. Further, at human CB2Rs [2] (setting [6]), the Ki was above 10000 nM.
Regarding SR-144528 [reference compound], the “Intrinsic activity at CB2Rs, G-protein activation” value on human CB2Rs [1] was “acted as inverse agonists”.

By Ki is commonly meant a measure of affinity in units of concentration, obtained from inhibition or displacement. By IC50 is commonly meant the midpoint of a concentration-inhibition curve.

(Values after paper PMC3685885 (Toxicology and applied pharmacology, 2013).)
